The test system of one data set is Swiss albino mice. Nature of the data set: Acute preclinical toxicity in mice (OECD 423). It counts as in vivo, mice (Mus musculus). As to the method: (§1) Female Swiss albino mice (Mus musculus) weighing between 28 and 32 g, with an approximate age of 60 days and obtained from the Dr. Thomas George Bioterium (Research Institute in Drugs and Medicines/Federal University of Paraíba, Paraíba, Brazil) were used. The animals were grouped in polyethylene cages containing six animals, with free access to food (Purina® feed pellets, St. Louis, MO, USA) and water. The animals were kept under controlled conditions (21 ± 1 °C, 12 h/12 h off light/dark cycle). All experiments were approved by the Committee on Ethical Use of Animals in Research (CEUA) of Federal University of Paraíba, Brazil, certified by number 093/2017.
(§2) The acute toxicity test in mice was performed according to the Guideline for Testing of Chemicals no. 423 of the Organization for Economic Co-operation and Development (OECD). Mice were divided into different groups (n = 3 females/group). The control group received vehicle alone (12% (v/v) Tween 80 in saline), and ACS03 was tested in single doses of 300 or 2000 mg/kg, intraperitoneally (i.p.). The dose responsible for the death of 50% of the experimental animals (LD50) was estimated.

Data set [1] can be described thus: Acute preclinical toxicity in mice (OECD 423). It counts as in vivo, mice (Mus musculus). As to conditions: female, Swiss albino, mouse, in vivo, ip, estimated, OECD 423, read-out: LD50 (lethal dose 50%). As to the method:
as §1, §2

Data set [2] deals with HCT-116 cells (human colon carcinoma cell line). Nature of the data set: MTT cytotoxicity assay, HCT-116. As to conditions: HCT-116, 72 h. It counts as cell-based. An excerpt:
Colorectal carcinoma cells (HCT-116), chronic myelogenous leukemia (K562), and acute promyelocytic leukemia (HL-60) were generously provided by Dr. Manoel de Moraes (Federal University of Ceará, Fortaleza, Brazil) and cultured in Roswell Park Memorial Institute 1640 (RPMI 1640; Sigma Aldrich, St. Louis, MO, USA) medium supplemented with 10% fetal bovine serum (GIBCO, Grand Island, NY, USA) and 1% penicillin–streptomycin (Sigma Aldrich, St. Louis, MO, USA). Human keratinocyte cells (HaCaT; provided by Dr. Jaciana Aguiar from Federal University of Pernambuco, Recife, Pernambuco, Brazil), cervical cancer cells (HeLa; purchased from the cell bank of Rio de Janeiro, Rio de Janeiro, Brazil), and breast cancer cells (MCF-7; provided by Dr. João Ernesto de Carvalho from University of Campinas, Campinas, São Paulo, Brazil) were grown and maintained in Dulbecco’s Modified Eagle’s Medium (DMEM; Sigma Aldrich, St. Louis, MO, USA) supplemented with 10% fetal bovine serum (GIBCO, Grand Island, NY, USA) and 1% penicillin–streptomycin (Sigma Aldrich, St. Louis, MO, USA). All cell types were maintained in 5% CO2 at 37 °C with humidity.
MTT (3-(4,5-dimethylthiazol-2-yl)-2,5-diphenyltetrazolium bromide) reduction assay was used to evaluate the cytotoxicity of ACS03 and its precursors (2-amino-5,6,7,8-tetrahydro-4H-cyclohepta[b]thiophene-3-carbonitrile and 6,9-dichloro-2-methoxyacridine) against tumor and non-tumor cell lines and PBMC. For the MTT assay, cell lines (3 × 10^5 cells/mL) and PBMC (1 × 10^6 cells/mL) were seeded on 96-well plates and cultured for 24 h. ACS03 (3.125–200 µM) was added to the cell cultures and incubated for 72 h. After incubation, 110 µL of the supernatant was removed and 10 μL of the MTT reagent (Sigma Aldrich, St. Louis, MO, USA) was added to each well, and the plates were then incubated at 37 °C. Following 3 h incubation, 100 μL of sodium dodecyl sulfate (SDS) was added to dissolve the formazan crystals produced and left overnight to incubate. The amount of formazan is proportional to the number of viable cells present. The optical density was measured using a microplate spectrophotometer reader (Microplate reader BioTek Instruments, Sinergy HT, Winooski, VT, USA) at λ = 570 nm and used to calculate the IC50 (half maximal inhibitory concentration).
(In general: Tetrazolium assays rely on reduction of a dye to a coloured formazan, in cell work by metabolically active cells.)

A short description of data set [3]: Fish embryo acute toxicity (FET) test. Set-up: species or system zebrafish (Danio rerio). As to conditions: wild-type, in vivo, zebrafish embryos, 96 h exposure; for EC50 at 96 h: zebrafish. The method, then:
The zebrafish (Danio rerio) embryos were provided by the zebrafish facility established at Department of Molecular Biology, Federal University of Paraíba (João Pessoa, Brazil). To obtain embryos, an egg trap was placed overnight in a tank containing male and female specimens (1:1 ratio) of a wild-type strain one day prior to testing. One hour after the beginning of the light cycle (14 h light/10 h dark), eggs were collected and rinsed with E3 medium (5 mM NaCl, 0.17 mM KCl, 0.33 mM CaCl2, and 0.33 mM MgSO4). Viable fertilized eggs were selected using a stereomicroscope (80× magnification), and embryotoxicity analysis was carried out. All experiments were approved by the Committee on Ethical Use of Animals in Research (CEUA) of Federal University of Paraíba, Brazil, certified by number 5900310718/2018.
The fish embryo acute toxicity (FET) test was conducted with ACS03 according to OECD’s guideline no. 236, with slight modifications. Zebrafish embryos of up to 3 hpf (hours post fertilization) of age were initially exposed to 250–15.62 µM. For each concentration tested, we prepared a 96-well plate containing 20 fertilized eggs (1 embryo per well) exposed to the test sample and 4 embryos exposed only to E3 medium (internal controls). The exposure was performed for 96 h, and the embryos were analyzed every 24 h for the apical endpoints: egg coagulation; lack of somite formation; lack of detachment of the tail-bud from the yolk sac; and lack of heartbeat. In the presence of any of these endpoints, the embryo/larva was considered dead. The number of deaths was used to calculate the LC50 (median lethal concentration). Sublethal effects were also recorded in order to obtain the EC50 (median effect concentration), them being spinal deformation, reduction in larval length, and pericardial edema. The exposures were under static conditions (without renovation of test sample or E3 medium). Observations were performed in a stereomicroscope (80× magnification) and photographed (Zeiss). After 96 h, surviving larvae were euthanized with eugenol and properly discarded.
The results are expressed as the mean ± SEM. Statistical analysis of data was performed using analysis of variance (ANOVA), followed by Tukey’s test (p < 0.05). For zebrafish embryo cytotoxicity, the median lethal concentration (LC50) values and the median effect concentration (EC50) values were calculated by probit regression analysis.

As a reminder, the LD50 is the dose at which mortality reaches 50%. For orientation: IC50 means the midpoint of a concentration-inhibition curve. A low value points to greater potency. What is called EC50 is the concentration giving half of the maximal effect.

Where two headings read alike, the source gives them in different places. Bounds are passed on as bounds.

In the case of `COc1ccc2nc3cc(Cl)ccc3c(Nc3sc4c(c3C#N)CCCCC4)c2c1` [ACS03, 2-((6-Chloro-2-methoxyacridin-9-yl)amino)-5,6,7,8-tetrahydro-4H-cyclohepta[b]-thiophene-3-carbonitrile], the “death in acute toxicity assay” value in the data set on Swiss albino mice (single dose 300 mg/kg i.p., test repeated) is reported as “no death”; in the data set on Swiss albino mice (single dose 2000 mg/kg i.p., carried out twice) it was “did not induce death”. In addition, the LD50 in data set [1] is > 5000 mg/kg. In data set [2], this compound registered an IC50 of 23.1 ± 1.03 µM. Further, the LC50 at 96 h in data set [3] (read-out: LC50 (median lethal concentration)) is > 1000 µM. Besides, the concentration giving a half-maximal response (EC50) at 96 h in data set [3] (read-out: EC50 pericardial edema) was > 1000 µM; in data set [3] (read-out: EC50 reduction in larval length), 126 µM; in data set [3] (read-out: EC50 spinal deformation), 172 µM.

The record behind these values is PMC6983054, “Toxicity and Antitumor Activity of a Thiophene–Acridine Hybrid” (Molecules, 2019).
